Source: patent US20260166033A1, “USE OF A FGFR3 TYROSINE KINASE INHIBITOR FOR THE TREATMENT OF FGFR-RELATED BONE REPAIR AND BONE FORMATION IMPAIRMENTS” (INSTITUT NATIONAL DE LA SANTÉ ET DE LA RECHERCHE MÉDICALE, priority 2021, published 2026)

What was measured:
[1] = system: mouse model of ACH (Fgfr3Y367C/+); details: Fgfr3Y367C/+ mice; Komla Ebri et al 2016, Biosse Duplan et al 2016; cited from earlier work
HCH mice (Fgfr3^N534K/+) = experiment: Non-stabilized mandibular fracture bone repair in the HCH mouse model, microCT scans and repair grade; format: in vivo
Protocol: Mandibular bone repair was studied in the HCH mouse model (Fgfr3^N534K/+). The experiments were performed in adult animals at 6 weeks of age, and mice were euthanized at 4 key points: during bone repair (10, 14, 21 days post fracture), and at the end of the normal bone healing process i.e. at 28 days post fracture.
Vertical mandibular fractures were performed in the ascending ramus region in Fgfr3^N534K/+ and Fgfr3^+/+ mice. This is a non-stabilized mandibular fracture protocol allowing to analyze the endochondral bone repair process.
Four batches (n=100) of Fgfr3^N534K/+ and Fgfr3^+/+ mandible fractures corresponding to different key stages of repair were studied (day 10, day 14, day 21, day 28). Using collagen type II (proliferative cartilage), type X (hypertrophic cartilage) and type I (bone) immunolabelling, we observed that the endochondral process is disturbed, we noted a delayed cartilage resorption, a reduction in the size of hypertrophic chondrocytes area and a defect in bone formation within the repair callus in Fgfr3^N534K/+ compared to Fgfr3^+/+. […] We observed the presence of pseudarthrosis (fibrosis in the callus) in Fgfr3^N534K/+ mice whereas we observed 100% of bone in Fgfr3^+/+ callus. Considering the quality of the newly formed bone at day 28, we defined four grades of repair and classified the mice according to their repair grade (from 1 to 4). The defective repair is significant in Fgfr3^N534K/+ compared to Fgfr3^+/+ (FIG. 1C).
HCH mice (Fgfr3^N534K/+) were treated with infigratinib (subcutaneous injections at 4 mg/kg, 3 times per week) from day 0 (facture of the mandible) to day 14 or day 28. The bone repair analyses were evaluated by microCT scans at day 14 and day 28 post fracture (FIGS. 1A and 1B). We quantified BV/TV (Bone Volume/Total Volume) and Callus volume (ratio TV (total volume) of the callus/TV of the contralateral ascending ramus region).

[2] = day 28 grade repair, treated Fgfr3^N534K/+ mice

CCN1CCN(c2ccc(Nc3cc(N(C)C(=O)Nc4c(Cl)c(OC)cc(OC)c4Cl)ncn3)cc2)CC1 [BGJ398, 3-(2,6-dichloro-3,5-dimethoxyphenyl)-1-[6-[4-(4-ethylpiperazin-1-yl)anilino]pyrimidin-4-yl]-1-methylurea]
Effect on affected skeletal elements (long bones, vertebrae, intervertebral discs, craniofacial morphology, foramen magnum) [1]: improvement of many of the affected skeletal elements in ACH | Effect on defective bone reparation of the callus (summary in words) (HCH mice (Fgfr3^N534K/+); HCH mandible, non-stabilized fracture): partially restore the defective bone reparation of the callus, increases the bone volume/total volume without pseudarthrosis | Callus volume (ratio TV of the callus/TV of the contralateral ascending ramus region), treated vs untreated HCH mice (HCH mice (Fgfr3^N534K/+); day 14 post fracture, subcutaneous 4 mg/kg, 3 times per week from day 0, microCT): unchanged | BV/TV (Bone Volume/Total Volume), change in treated vs untreated HCH mice (HCH mice (Fgfr3^N534K/+); day 14 post fracture, subcutaneous 4 mg/kg, 3 times per week from day 0, microCT, p<0.05): +20.8% | Complete bone healing (grade 1), mice with this repair grade (HCH mice (Fgfr3^N534K/+); [2]): 7/10 | Restoration of bone continuity, but presence of mild bone defects (grade 2), mice with this repair grade (HCH mice (Fgfr3^N534K/+); [2]): 3/10 | Callus volume, change in treated vs untreated HCH mice (HCH mice (Fgfr3^N534K/+); day 28 post fracture, subcutaneous 4 mg/kg, 3 times per week from day 0, microCT, p<0.0001): −38.6% | BV/TV (Bone Volume/Total Volume), change in treated vs untreated HCH mice (HCH mice (Fgfr3^N534K/+); day 28 post fracture, subcutaneous 4 mg/kg, 3 times per week from day 0, microCT, p<0.01): +17.8%
